# According to patent publication US9616063B2, “1-[2-(aminomethyl)benzyl]-2-thioxo-1,2,3,5-tetrahydro-4H-pyrrolo[3,2-d]pyrimidin-4-ones as inhibitors of myeloperoxidase” (AstraZeneca AB, priority 2014, dated 2017):
# pIC50: −log10 of the molar value.
# Key:
# [1] = test system: MPO purified from the human cell line HL60; test: MPO inhibition, Test A (loss of ascorbate, absorbance at 260 nm); assay type: biochemical; conditions: ratio TPO to MPO, selectivity for MPO over TPO
# Description: (§1) Methods for the determination of MPO inhibitory activity are disclosed in WO 02/090575. The pharmacological activity of compounds disclosed herein was tested in the following screen (Test A) in which the compounds were tested in the presence of ascorbate, which reacts with MPO-derived hypochlorous acid (HOCl) to form dehydro-ascorbate. The loss of ascorbate is followed by measuring absorbance at 260 nm.
# (§2) Assay buffer: 100 μM diethyl triamine pentaacetic acid (DTPA) in buffer consisting of 10 mM Na2HPO4/NaH2PO4, 3 mM KCl in 140 mM NaCl, pH 7.4.
# (§3) Enzyme solution: MPO purified from the human cell line HL60, 1.38 nM (final concentration 0.7 nM) and L-ascorbate, 100 μM (final concentration 50 μM) in Assay buffer
# (§4) Substrate solution: H2O2, 98 μM (final concentration 49 μM) Forty μL of the enzyme solution was added to 0.6 μL compound serially diluted in DMSO. Absorbance was measured at 260 nm to obtain a compound blank value. After an additional 10 min, 40 μL of the substrate solution was added and the absorbance at 260 nm was recorded between 4 and 40 min to obtain kinetic readings of enzyme activity.
# [2] = target: MPO purified from the human cell line HL60 (Homo sapiens (Human), UniProt P05164); test: as above; assay type: biochemical; conditions: absorbance at 260 nm 20 minutes after substrate addition
# Description: as §1, §2, §3, §4
# [3] = target: baculovirus-expressed recombinant human TPO (Homo sapiens (Human), UniProt P07202); test: TPO inhibition (hypoiodous acid production, absorbance at 353 nm); assay type: biochemical
# Description: To detect thyroid peroxidase (TPO) inhibitory activity, the production of hypoiodous acid (HOI) was quantified. HOI was detected by reacting it with methionine, which is converted to dehydro-methionine, which in turn is detected by reacting it with excess iodide at acidic pH. The reaction converts I^− to I3^− that has absorbance at 353 nm. In brief, 0.6 μL compound serially diluted in DMSO was added to 25 μL 50 nM baculovirus-expressed recombinant human TPO (obtained from RSR Ltd, Cardiff, UK) in assay buffer (100 mM Na2HPO4/NaH2PO4, pH 7.4), after which absorbance at 353 nm was read to obtain a blank value. The enzyme reaction was initiated by the addition of 25 μL of a mix consisting of 2 mM methionine, 20 μM NaI and 100 μM H2O2 in assay buffer, and stopped by the addition of 10 μL catalase, 0.25 mg/mL. […] IC50 values of the compounds tested were obtained using standard procedures.
# [4] = Plasma urate levels in Healthy Volunteers after MPO inhibitor treatment (clinical trial); assay type: in vivo, human; conditions: daily dose for 10 days, FIG. 2, NCT00914303
# Description: Subjects received placebo or the indicated daily dose for 10 days, and the difference in plasma urate levels versus baseline was calculated. Each symbol represents one subject.
# activated MPO = activated MPO (Homo sapiens (Human), UniProt P05164); test: Urate production from xanthine by activated MPO in vitro (LC-MS); assay type: biochemical; conditions: activated MPO incubated with xanthine and titrated compound for 80 min
# Excerpt: The dotted line represents the urate formed in the presence of unactivated MPO.
# In addition to MPOs role in maintaining elevated urate levels due to poor perfusion as discussed above, we also propose that MPO per se may generate urate by oxidizing xanthine in concert with xanthine oxidase.
# [5] = healthy subjects, clinical trial, data not shown; cited from earlier work
# Chain of baculovirus-expressed recombinant human TPO (P07202 19-933): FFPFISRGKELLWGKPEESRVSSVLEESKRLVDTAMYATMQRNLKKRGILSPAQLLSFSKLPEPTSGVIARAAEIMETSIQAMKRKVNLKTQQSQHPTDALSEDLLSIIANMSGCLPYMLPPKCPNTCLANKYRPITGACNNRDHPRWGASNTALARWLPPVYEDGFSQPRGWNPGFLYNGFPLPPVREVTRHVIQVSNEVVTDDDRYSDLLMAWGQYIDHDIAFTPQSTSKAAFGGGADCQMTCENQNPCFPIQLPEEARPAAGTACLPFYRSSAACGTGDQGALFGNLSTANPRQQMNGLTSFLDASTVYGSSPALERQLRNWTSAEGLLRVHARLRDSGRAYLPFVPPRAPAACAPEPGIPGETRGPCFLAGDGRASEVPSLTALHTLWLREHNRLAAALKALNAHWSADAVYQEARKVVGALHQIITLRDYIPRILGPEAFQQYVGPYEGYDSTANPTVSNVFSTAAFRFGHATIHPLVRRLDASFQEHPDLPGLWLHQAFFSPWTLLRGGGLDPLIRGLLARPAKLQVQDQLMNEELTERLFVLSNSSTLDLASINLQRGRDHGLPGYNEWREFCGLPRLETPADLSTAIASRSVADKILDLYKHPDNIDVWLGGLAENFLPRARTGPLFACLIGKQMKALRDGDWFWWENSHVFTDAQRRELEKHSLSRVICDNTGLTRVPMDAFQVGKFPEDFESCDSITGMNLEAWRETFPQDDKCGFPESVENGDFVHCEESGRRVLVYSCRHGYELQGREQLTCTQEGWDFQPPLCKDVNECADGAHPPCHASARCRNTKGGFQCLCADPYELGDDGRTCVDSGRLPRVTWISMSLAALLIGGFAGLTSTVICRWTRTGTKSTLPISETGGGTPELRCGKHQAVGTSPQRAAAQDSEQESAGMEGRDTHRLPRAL
# Chain of MPO purified from the human cell line HL60 (Homo sapiens (Human), UniProt P05164) (P05164 whole entry, looked up, change not shown): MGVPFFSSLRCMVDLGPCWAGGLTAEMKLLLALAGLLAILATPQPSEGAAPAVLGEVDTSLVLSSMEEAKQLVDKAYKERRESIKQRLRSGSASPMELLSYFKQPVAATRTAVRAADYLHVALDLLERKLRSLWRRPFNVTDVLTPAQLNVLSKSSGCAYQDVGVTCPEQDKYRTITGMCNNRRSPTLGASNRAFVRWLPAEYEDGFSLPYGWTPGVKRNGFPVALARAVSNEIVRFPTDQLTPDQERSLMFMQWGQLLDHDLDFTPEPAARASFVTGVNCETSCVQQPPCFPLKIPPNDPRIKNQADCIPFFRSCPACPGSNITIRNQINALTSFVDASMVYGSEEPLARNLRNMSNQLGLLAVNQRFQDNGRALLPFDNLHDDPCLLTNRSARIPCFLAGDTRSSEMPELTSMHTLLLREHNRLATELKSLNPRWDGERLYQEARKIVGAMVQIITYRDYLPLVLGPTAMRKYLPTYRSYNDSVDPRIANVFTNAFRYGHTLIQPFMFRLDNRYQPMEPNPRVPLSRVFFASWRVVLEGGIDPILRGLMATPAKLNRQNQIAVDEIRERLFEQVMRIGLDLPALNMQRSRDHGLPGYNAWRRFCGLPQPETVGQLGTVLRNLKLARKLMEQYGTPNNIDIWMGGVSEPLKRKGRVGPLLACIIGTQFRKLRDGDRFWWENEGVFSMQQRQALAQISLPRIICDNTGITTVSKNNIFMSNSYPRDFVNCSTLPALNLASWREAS
# Chain of MPO purified from the human cell line HL60 (Homo sapiens (Human), UniProt P05164) (P05164 whole entry, looked up, change not shown): as above
# Chain of activated MPO (P05164 49-745): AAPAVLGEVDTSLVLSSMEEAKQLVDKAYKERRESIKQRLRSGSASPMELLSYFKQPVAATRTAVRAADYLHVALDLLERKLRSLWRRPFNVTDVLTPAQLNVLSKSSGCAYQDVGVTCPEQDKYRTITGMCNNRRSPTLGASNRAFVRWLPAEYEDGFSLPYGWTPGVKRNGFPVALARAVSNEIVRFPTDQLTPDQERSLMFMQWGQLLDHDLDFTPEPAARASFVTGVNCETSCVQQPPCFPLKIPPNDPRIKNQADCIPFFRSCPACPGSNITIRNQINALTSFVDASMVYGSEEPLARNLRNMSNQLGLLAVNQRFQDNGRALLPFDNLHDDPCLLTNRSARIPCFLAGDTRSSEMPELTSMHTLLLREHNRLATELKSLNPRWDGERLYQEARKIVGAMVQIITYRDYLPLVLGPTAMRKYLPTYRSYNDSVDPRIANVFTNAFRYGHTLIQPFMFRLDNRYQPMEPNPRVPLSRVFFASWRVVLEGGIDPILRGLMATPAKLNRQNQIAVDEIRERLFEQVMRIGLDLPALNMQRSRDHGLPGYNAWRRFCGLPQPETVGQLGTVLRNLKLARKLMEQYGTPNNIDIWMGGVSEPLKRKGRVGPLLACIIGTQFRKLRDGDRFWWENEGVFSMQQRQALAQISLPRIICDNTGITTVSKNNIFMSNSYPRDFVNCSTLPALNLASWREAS
SMILES,IC50 (TPO)/IC50 (MPO) [1],pIC50 [2],pIC50 [3],reduction of plasma urate levels versus baseline [4],inhibition of urate production by activated MPO (activated MPO),reduction of urate levels [5]
"CC(C)NCc1ccccc1Cn1c(=S)[nH]c(=O)c2[nH]ccc21 [Example 13, 1-{2-[(Propan-2-ylamino)methyl]benzyl}-2-thioxo-1,2,3,5-tetrahydro-4H-pyrrolo[3,2-d]pyrimidin-4-one]",1609,7.62,4.42,,,
"CNC(C)c1cc(Cl)ccc1Cn1c(=S)[nH]c(=O)c2[nH]ccc21 (stereo not shown) [Example 5, 1-{4-Chloro-2-[1-(methylamino)ethyl]benzyl}-2-thioxo-1,2,3,5-tetrahydro-4H-pyrrolo[3,2-d]pyrimidin-4-one]",468,7.72,5.05,,,
"CNCc1cc(Cl)ccc1Cn1c(=S)[nH]c(=O)c2[nH]ccc21 [Example 8, 1-{4-Chloro-2-[(methylamino)methyl]benzyl}-2-thioxo-1,2,3,5-tetrahydro-4H-pyrrolo[3,2-d]pyrimidin-4-one]",952,7.89,4.89,,,
"CNCc1cc(C(F)(F)F)ccc1Cn1c(=S)[nH]c(=O)c2[nH]ccc21 [Example 15, 1-{2-[(Methylamino)methyl]-4-(trifluoromethyl)benzyl}-2-thioxo-1,2,3,5-tetrahydro-4H-pyrrolo[3,2-d]pyrimidin-4-one]",224,7.31,4.96,,,
CC(C)OCCn1c(=S)[nH]c(=O)c2[nH]ccc21 [AZD3241],,,,dose-dependently reduced urate levels,,
"NCc1cc(C(F)(F)F)ccc1Cn1c(=S)[nH]c(=O)c2[nH]ccc21 [Example 14, 1-[2-(Aminomethyl)-4-(trifluoromethyl)benzyl]-2-thioxo-1,2,3,5-tetrahydro-4H-pyrrolo[3,2-d]pyrimidin-4-one]",697,7.40,4.55,,,
"NCc1cc(Cl)ccc1Cn1c(=S)[nH]c(=O)c2[nH]ccc21 [Example 7, 1-[2-(Aminomethyl)-4-chlorobenzyl]-2-thioxo-1,2,3,5-tetrahydro-4H-pyrrolo[3,2-d]pyrimidin-4-one]",,,4.96,,,
"O=c1[nH]c(=S)n(Cc2ccccc2CNC2CCC2)c2cc[nH]c12 [Example 10, 1-{2-[(Cyclobutylamino)methyl]benzyl}-2-thioxo-1,2,3,5-tetrahydro-4H-pyrrolo[3,2-d]pyrimidin-4-one]",1100,8.00,4.96,,,
"CCNCc1cc(Cl)ccc1Cn1c(=S)[nH]c(=O)c2[nH]ccc21 [Example 6, 1-{4-Chloro-2-[(ethylamino)methyl]benzyl}-2-thioxo-1,2,3,5-tetrahydro-4H-pyrrolo[3,2-d]pyrimidin-4-one]",455,7.66,5.00,,,
"O=c1[nH]c(=S)n(Cc2ccccc2CNC2CCCC2)c2cc[nH]c12 [Example 11, 1-{2-[(Cyclopentylamino)methyl]benzyl}-2-thioxo-1,2,3,5-tetrahydro-4H-pyrrolo[3,2-d]pyrimidin-4-one]",1357,7.85,4.72,,,
"O=c1[nH]c(=S)n(Cc2ccccc2CNCC2CCC2)c2cc[nH]c12 [Example 9, 1-(2-{[(Cyclobutylmethyl)amino]methyl}benzyl)-2-thioxo-1,2,3,5-tetrahydro-4H-pyrrolo[3,2-d]pyrimidin-4-one]",552,7.54,4.80,,,
"CC(N)c1cc(Cl)ccc1Cn1c(=S)[nH]c(=O)c2[nH]ccc21 (racemic) [Example 2, 1-[2-(1-Aminoethyl)-4-chlorobenzyl]-2-thioxo-1,2,3,5-tetrahydro-4H-pyrrolo[3,2-d]pyrimidin-4-one]",,,5.06,,,
"C[C@@H](N)c1cc(Cl)ccc1Cn1c(=S)[nH]c(=O)c2[nH]ccc21 [Example 3, 1-{2-[(1R)-1-Aminoethyl]-4-chlorobenzyl}-2-thioxo-1,2,3,5-tetrahydro-4H-pyrrolo[3,2-d]pyrimidin-4-one]",,,5.37,,concentration-dependently inhibited,
"C[C@H](N)c1cc(Cl)ccc1Cn1c(=S)[nH]c(=O)c2[nH]ccc21 [Example 4b, 1-{2-[(1S)-1-Aminoethyl]-4-chlorobenzyl}-2-thioxo-1,2,3,5-tetrahydro-4H-pyrrolo[3,2-d]pyrimidin-4-one]",,,4.17,,,
"CC[C@@H](N)c1cc(Cl)ccc1Cn1c(=S)[nH]c(=O)c2[nH]ccc21 [Example 1, 1-{2-[(1R)-1-Aminopropyl]-4-chlorobenzyl}-2-thioxo-1,2,3,5-tetrahydro-4H-pyrrolo[3,2-d]pyrimidin-4-one]",512,8.07,5.36,,,
O=c1[nH]c(=S)n(C[C@H]2CCCO2)c2nc[nH]c12 [AZD5904],,,,,,dose-dependently reduced urate levels
"CC(C)CNCc1ccccc1Cn1c(=S)[nH]c(=O)c2[nH]ccc21 [Example 12, 1-(2-{[(2-Methylpropyl)amino]methyl}benzyl)-2-thioxo-1,2,3,5-tetrahydro-4H-pyrrolo[3,2-d]pyrimidin-4-one]",852,7.27,4.34,,,
